From patent US11274097B2, “2-(het)aryl-substituted condensed bicyclic heterocycle derivatives as pest control agents” (BAYER CROPSCIENCE AKTIENGESELLSCHAFT, priority 2014, dated 2022)
Like-named read-outs stand apart in the source and are kept apart here.

Experiments:
[1] = log P by HPLC on a reversed-phase column (C 18), EEC Directive 79/831 Annex V.A8; format: physicochemical; conditions: for LOGP_NEUTRAL: pH 7.8, 0.001 molar aqueous ammonium hydrogencarbonate/acetonitrile; for chromatographic logP: reversed-phase HPLC column (C 18)
Description: The log P values are measured according to EEC Directive 79/831 Annex V.A8 by HPLC (high-performance liquid chromatography) on a reversed-phase column (C 18). Temperature: 55° C. The LC-MS determination in the acidic range is effected at pH 2.7 using 0.1% aqueous formic acid and acetonitrile (contains 0.1% formic acid) as eluents, linear gradient from 10% acetonitrile to 95% acetonitrile. Called log P (HCOOH) in the table. LC-MS determination in the neutral range is effected at pH 7.8 with 0.001 molar aqueous ammonium hydrogencarbonate solution and acetonitrile as eluents; linear gradient from 10% acetonitrile to 95% acetonitrile. Called log P (neutral) in the table. Calibration is effected with unbranched alkan-2-ones (having 3 to 16 carbon atoms) with known log P values (log P values determined on the basis of the retention times by linear interpolation between two successive alkanone s).

[2] = test system: Phaedon cochleariae; assay: Phaedon cochleariae spray test (PHAECO); format: in vivo; conditions: application rate 500 g/ha; larvae; after 7 days
Description: Phaedon cochleariae—Spray Test (PHAECO)
Solvent: 78.0 parts by weight of acetone • • 1.5 parts by weight of dimethylformamide
Emulsifier: alkylaryl polyglycol ether
To produce an appropriate active ingredient formulation, 1 part by weight of active ingredient is dissolved using the stated parts by weight of solvent and made up with water containing an emulsifier concentration of 1000 ppm until the desired concentration is attained. To produce further test concentrations, the preparation is diluted with emulsifier-containing water.
Discs of Chinese cabbage leaves (Brassica pekinensis) are sprayed with an active ingredient formulation of the desired concentration and, after drying, populated with larvae of the mustard beetle (Phaedon cochleariae).
After 7 days, the efficacy in % is determined. 100% means that all the beetle larvae have been killed; 0% means that no beetle larvae have been killed.

[3] = acidic range, pH 2.7, 0.1% aqueous formic acid/acetonitrile, 55° C.
[4] = neutral range, pH 7.8, read-out: log P (neutral)
[5] = acidic range, pH 2.7, 0.1% aqueous formic acid/acetonitrile, 55° C., read-out: LOGP_HCOOH

SMILES: CSc1cc(Cl)ccc1-c1nc2nc(C(F)(F)F)ncc2n1C [Example I-6]
- LOGP_HCOOH [1, 3]: 2.75
- LOGP_NEUTRAL ([1]; neutral range, 55° C.): 2.74

SMILES: CCCS(=O)(=O)c1ccc(OC)nc1-c1nc2cc(C(F)(F)F)ncc2n1C [Example I-71]
- LOGP_HCOOH [1, 3]: 2.93

SMILES: Cn1c(-c2ncccc2SC(F)(F)F)nc2cc(C(F)(F)F)ncc21 [Example I-29]
- efficacy [2]: 100%
- LOGP_HCOOH [1, 3]: 3.04
- LOGP_NEUTRAL ([1]; neutral range, 55° C.): 2.93

SMILES: CC(C)[S+]([O-])c1cc(C(F)(F)F)cnc1-c1nc2cc(C(F)(F)F)ncc2n1C (centres unmarked) [Example I-8]
- LOGP_HCOOH [1, 3]: 3.54
- LOGP_NEUTRAL ([1]; neutral range, 55° C.): 3.46

SMILES: CCS(=O)(=O)c1cc(C(F)(F)F)cnc1-c1nc2cc(-n3ccc(C(F)(F)F)n3)ncc2n1C [Example I-77]
- LOGP_HCOOH [1, 3]: 3.90
- LOGP_NEUTRAL ([1]; neutral range, 55° C.): 3.81

SMILES: CSc1cc(Cl)ccc1-c1nc2cc(C(F)(F)F)ncc2n1C [Example I-25]
- efficacy [2]: 100%
- LOGP_HCOOH [1, 3]: 3.08
- LOGP_NEUTRAL ([1]; neutral range, 55° C.): 2.97

SMILES: Cn1c(-c2ccccc2S(=O)(=O)C2COC2)nc2cc(C(F)(F)F)ncc21 [Example I-27]
- LOGP_HCOOH [1, 3]: 1.87
- LOGP_NEUTRAL ([1]; neutral range, 55° C.): 1.84

SMILES: CCS(=O)(=O)c1cc(C(F)(F)F)cnc1-c1nc2cc(-n3cc(C(F)(F)F)cn3)ncc2n1C [Example I-76]
- LOGP_HCOOH [1, 3]: 3.84
- LOGP_NEUTRAL ([1]; neutral range, 55° C.): 3.73

SMILES: Cn1c(-c2ncc(C(F)(F)F)cc2SCCO)nc2cc(C(F)(F)F)ncc21 [Example I-59]
- LOGP_HCOOH [1, 3]: 2.41
- LOGP_NEUTRAL ([1]; neutral range, 55° C.): 2.31

SMILES: CCS(=O)(=O)CCS(=O)(=O)c1cc(C(F)(F)F)cnc1-c1nc2cc(C(F)(F)F)ncc2n1C [Example I-7]
- LOGP_HCOOH [1, 3]: 2.72
- LOGP_NEUTRAL ([1]; neutral range, 55° C.): 2.67

SMILES: CCSc1ccccc1C(=O)Nc1cc(C(F)(F)F)ncc1O [VIII-02, 2-(ethylsulphanyl)-N-[5-hydroxy-2-(trifluoromethyl)pyridin-4-yl]benzamide]
- chromatographic logP [1, 4]: 1.59

SMILES: COc1ccc(SC)c(-c2nc3cc(C(F)(F)F)ncc3n2C)n1 [Example I-67]
- LOGP_HCOOH [1, 3]: 2.75
- LOGP_NEUTRAL ([1]; neutral range, 55° C.): 2.70

SMILES: COc1ccc(S(C)(=O)=O)c(-c2nc3cc(C(F)(F)F)ncc3n2C)n1 [Example I-73]
- efficacy [2]: 100%
- LOGP_HCOOH [1, 3]: 2.25
- LOGP_NEUTRAL ([1]; neutral range, 55° C.): 2.20

SMILES: CSc1cc(Cl)ccc1-c1nc2cc(C(F)(F)F)ncc2o1 [Example I-34]
- LOGP_HCOOH [1, 3]: 4.38
- LOGP_NEUTRAL ([1]; neutral range, 55° C.): 4.41

SMILES: CCS(=O)(=O)c1cccnc1-c1nc2cc(C(F)(F)F)ncc2n1C [Example I-15]
- LOGP_HCOOH [1, 3]: 1.95
- LOGP_NEUTRAL ([1]; neutral range, 55° C.): 1.92

SMILES: CSc1cc(C(F)(F)F)ccc1-c1nc2cc(C(F)(F)F)ncc2n1C [Example I-5]
- efficacy [2]: 100%
- LOGP_HCOOH [1, 3]: 3.30
- LOGP_NEUTRAL ([1]; neutral range, 55° C.): 3.26

SMILES: FC(F)(F)c1cc2nc(-c3ccccc3SC3COC3)oc2cn1 [Example I-40]
- LOGP_HCOOH [1, 3]: 3.15
- LOGP_NEUTRAL ([1]; neutral range, 55° C.): 3.10

SMILES: CCSc1cc(C(F)(F)F)cnc1-c1nc2cc(-n3cc(C(F)(F)F)cn3)ncc2n1C [Example I-65]
- LOGP_HCOOH [1, 3]: 4.37
- LOGP_NEUTRAL ([1]; neutral range, 55° C.): 4.31

SMILES: CCCSc1cc(C(F)(F)F)cnc1-c1nc2cc(C(F)(F)F)ncc2n1C [Example I-31]
- efficacy [2]: 100%
- LOGP_HCOOH [1, 3]: 3.94
- LOGP_NEUTRAL ([1]; neutral range, 55° C.): 3.86

SMILES: CCSc1cc(C(N)=O)cnc1-c1nc2cc(C(F)(F)F)ncc2n1C [Example I-60]
- LOGP_HCOOH [1, 3]: 1.77
- LOGP_NEUTRAL ([1]; neutral range, 55° C.): 1.76

SMILES: CCSc1ccccc1-c1nc2nc(C(F)(F)F)ncc2o1 [Example I-9]
- LOGP_HCOOH [1, 3]: 3.66
- LOGP_NEUTRAL ([1]; neutral range, 55° C.): 3.64

SMILES: CSc1cc(C(F)(F)F)cnc1-c1nc2cc(C(F)(F)F)ncc2n1C [Example I-3, 3-methyl-2-[3-(methylsulphanyl)-5-(trifluoromethyl)pyridin-2-yl]-6-(trifluoro-methyl)-3H-imidazo[4,5-c]pyridine]
- efficacy [2]: 100%
- LOGP_NEUTRAL ([1]; neutral range, 55° C.): 3.16
- chromatographic logP [1, 5]: 3.22
- chromatographic logP [1, 4]: 3.16

SMILES: Cn1c(-c2ncc(C(F)(F)F)cc2Cl)nc2cc(C(F)(F)F)ncc21 [IX-01, 2-[3-chloro-5-(trifluoromethyl)pyridin-2-yl]-3-methyl-6-(trifluoromethyl)-3H-imidazo[4,5-c]pyridine]
- chromatographic logP [1, 4]: 2.96

SMILES: Cn1c(-c2ncc(C(F)(F)F)cc2S(=O)(=O)CCF)nc2cc(C(F)(F)F)ncc21 [Example I-57]
- LOGP_HCOOH [1, 3]: 2.89
- LOGP_NEUTRAL ([1]; neutral range, 55° C.): 2.82

SMILES: CNc1cnc(C(F)(F)F)cc1NC(=O)c1ncc(C(F)(F)F)cc1Cl [VIII-01, 3-chloro-N-[5-(methylamino)-2-(trifluoromethyl)pyridin-4-yl]-5-(trifluoromethyl)pyridine-2-carboxamide]
- chromatographic logP [1, 4]: 3.09

SMILES: CCSc1cc(C(F)(F)F)cnc1-c1nc2cc(-c3ccc(C(F)(F)F)cc3)ncc2n1C [Example I-64, 2-[3-ethylsulphanyl-5-(trifluoromethyl)-2-pyridyl]-3-methyl-6-[4-(trifluoromethyl)-phenyl]imidazo[4,5-c]pyridine]
- LOGP_HCOOH [1, 3]: 3.93
- LOGP_NEUTRAL ([1]; neutral range, 55° C.): 3.95
- chromatographic logP [1, 4]: 3.95

SMILES: Cn1c(-c2ccc(F)cc2S(C)(=O)=O)nc2cc(C(F)(F)F)ncc21 [Example I-20]
- LOGP_HCOOH [1, 3]: 2.08
- LOGP_NEUTRAL ([1]; neutral range, 55° C.): 2.05

SMILES: CCSc1cc(C(F)(F)F)cnc1-c1nc2cc(-n3ccc(C(F)(F)F)n3)ncc2n1C [Example I-69]
- LOGP_HCOOH [1, 3]: 4.37
- LOGP_NEUTRAL ([1]; neutral range, 55° C.): 4.32

SMILES: CCS(=O)(=O)c1c(Cl)cccc1-c1nc2cc(C(F)(F)F)ncc2n1C [Example I-62]
- LOGP_HCOOH [1, 3]: 2.17
- LOGP_NEUTRAL ([1]; neutral range, 55° C.): 2.15

SMILES: CCSc1cc(C(F)(F)F)cnc1-c1nc2cc(-n3cnc(C(F)(F)F)c3)ncc2n1C [Example I-74, 2-[3-ethylsulphanyl-5-(trifluoromethyl)-2-pyridyl]-3-methyl-6-[4-(trifluoromethyl)-imidazol-1-yl]imidazo[4,5-c]pyridine]
- LOGP_NEUTRAL ([1]; neutral range, 55° C.): 3.36
- chromatographic logP [1, 5]: 3.49
- chromatographic logP [1, 4]: 3.36

SMILES: CCCS(=O)(=O)c1cc(C(F)(F)F)cnc1-c1nc2cc(C(F)(F)F)ncc2n1C [Example I-32]
- LOGP_HCOOH [1, 3]: 3.37
- LOGP_NEUTRAL ([1]; neutral range, 55° C.): 3.32

SMILES: CC[S+]([O-])c1cccnc1-c1nc2cc(C(F)(F)F)ncc2n1C (centres unmarked) [Example I-33]
- LOGP_HCOOH [1, 3]: 2.12
- LOGP_NEUTRAL ([1]; neutral range, 55° C.): 2.11

SMILES: CCCSc1ccc(OC)nc1-c1nc2cc(C(F)(F)F)ncc2n1C [Example I-66]
- LOGP_HCOOH [1, 3]: 3.50
- LOGP_NEUTRAL ([1]; neutral range, 55° C.): 3.42

SMILES: CCSc1ccccc1-c1nc2cc(C(F)(F)F)ncc2o1 [Example I-35, 2-[2-(Ethylsulphanyl)phenyl]-6-(trifluoromethyl)[1,3]oxazolo[5,4-c]pyridine]
- LOGP_HCOOH [1, 3]: 4.03
- LOGP_NEUTRAL ([1]; neutral range, 55° C.): 4.07
- chromatographic logP [1, 4]: 4.07

SMILES: Cn1c(-c2ncc(C(F)(F)F)cc2S(=O)(=O)CCO)nc2cc(C(F)(F)F)ncc21 [Example I-58]
- LOGP_NEUTRAL ([1]; neutral range, 55° C.): 2.19

SMILES: CCS(=O)(=O)c1cc(C(F)(F)F)cnc1-c1nc2cc(-n3cnc(C(F)(F)F)c3)ncc2n1C [Example I-75]
- LOGP_HCOOH [1, 3]: 2.94
- LOGP_NEUTRAL ([1]; neutral range, 55° C.): 2.84

SMILES: CSc1cc(Cl)ccc1-c1nc2nc(C(F)(F)F)ncc2o1 [Example I-1]
- LOGP_HCOOH [1, 3]: 3.86
- LOGP_NEUTRAL ([1]; neutral range, 55° C.): 3.77

SMILES: CCS(=O)(=O)c1cc(C#N)cnc1-c1nc2cc(C(F)(F)F)ncc2n1C [Example I-72]
- LOGP_HCOOH [1, 3]: 2.32
- LOGP_NEUTRAL ([1]; neutral range, 55° C.): 2.26

SMILES: CC(C)S(=O)(=O)c1cc(C(F)(F)F)cnc1-c1nc2cc(C(F)(F)F)ncc2n1C [Example I-16]
- LOGP_HCOOH [1, 3]: 3.26
- LOGP_NEUTRAL ([1]; neutral range, 55° C.): 3.21
